For the experiment, the system named is HEK293. In words: Cytotoxicity against HEK293 cells by MTT assay. Format: functional, cell-based. The following applies: Homo sapiens. In general terms: Tetrazolium assays rely on reduction of a dye to a coloured formazan, in cell work by metabolically active cells.

2 compounds from ChEMBL document CHEMBL1146070, “Investigating the role of stereochemistry in the activity of anticancer acylfulvenes: synthesis, reductase-mediated bioactivation, and cellular toxicity” (J Med Chem, 2006) can be followed below.

A word on the IC50: it is the concentration at which inhibition is half-maximal. In turn, `CC1=CC2=C(C)C3(CC3)[C@@](C)(O)C(=O)C2=C1` [ACYLFULVENE] had a half-inhibitory concentration (IC50) of 1.4 µM.

The compound `CC1=C(CO)C2=C(C)C3(CC3)[C@@](C)(O)C(=O)C2=C1` [IROFULVEN] had an IC50 of 1.2 µM.
